Experimental data taken from PubChem BioAssay AID493161 (The Scripps Research Institute Molecular Screening Center, 2011).
Activity calls are given as the source filed them. How the calls were made is not given here.

Assay: cell survival reduction, dose-dependent – absorbance, serum-free or FCS media, cytotoxicity control for LYPLA1/LYPLA2 dual inhibitor project, dose response (AID 493161)

SMILES	CC50 (serum-free media)	CC50 (with FCS)
CCC1CCCCN1C(=O)n1ncc(C(O)(c2ccccc2)c2ccccc2)n1 (stereo unspecified)	> 50 µM (inactive)	> 50 µM (inactive)
CC(C)(O)c1cnn(C(=O)N2CCC(C(C)(C)C)CC2)n1	> 9 µM	> 27 µM (inactive)
CC(C)(C)C1CCN(C(=O)n2ncc(C(O)(c3ccccc3)c3ccccc3)n2)CC1	> 35 µM (inactive)	> 50 µM (inactive)
